Measured values reported in the supplement of paper PMC4932681.

Key:
[1] = tested on: MCF-7; experiment: relative IC50 (midpoint of fitted logistic curve, plateau may be below 50% inhibition; CellTiter-Glo viability); higher = less potent; details: 72 h
Outline: (§1)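 Breast cancer cell lines and their resistant derivatives were seeded into 384-well plates containing library drugs at five concentrations across a 10 000-fold range, with resistant lines kept in medium with 1 μM of the selecting drug. After 72 h at 37 °C, CellTiter-Glo viability was read on a PHERAstar and normalised to vehicle-only and positive controls. Logistic dose–response fits in the Breeze pipeline gave drug sensitivity score, relative IC50 (curve midpoint) and top-dose inhibition.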

[2] = tested on: T-47D Tam2; experiment: as above; details: 4-OH-tamoxifen in medium 1 µM; 72 h
Outline: as §1

[3] = tested on: T-47D Tam1; experiment: as above; details: 4-OH-tamoxifen in medium 1 µM; 72 h
Outline: as §1

[4] = tested on: ZR-75-1 Tam1; experiment: as above; details: 4-OH-tamoxifen in medium 1 µM; 72 h
Outline: as §1

[5] = tested on: BT-474; experiment: as above; details: 72 h
Outline: as §1

[6] = tested on: T-47D; experiment: as above; details: 72 h
Outline: as §1

[7] = tested on: BT-474 Tam1; experiment: as above; details: 4-OH-tamoxifen in medium 1 µM; 72 h
Outline: as §1

[8] = tested on: MCF-7 Tam1; experiment: as above; details: 4-OH-tamoxifen in medium 1 µM; 72 h
Outline: as §1

[9] = tested on: BT-474 Tam2; experiment: as above; details: 4-OH-tamoxifen in medium 1 µM; 72 h
Outline: as §1

[10] = tested on: ZR-75-1 Tam2; experiment: as above; details: 4-OH-tamoxifen in medium 1 µM; 72 h
Outline: as §1

[11] = tested on: ZR-75-1; experiment: as above; details: 72 h
Outline: as §1

[12] = tested on: MCF-7; experiment: drug sensitivity score (DSS) (DSS (dimensionless)); higher = more sensitive; extreme values may be limits of the assay; details: 72 h
Outline: as §1

[13] = tested on: T-47D Tam2; experiment: as above; details: 4-OH-tamoxifen in medium 1 µM; 72 h
Outline: as §1

[14] = tested on: T-47D Tam1; experiment: as above; details: 4-OH-tamoxifen in medium 1 µM; 72 h
Outline: as §1

[15] = tested on: ZR-75-1 Tam1; experiment: as above; details: 4-OH-tamoxifen in medium 1 µM; 72 h
Outline: as §1

[16] = tested on: BT-474; experiment: as above; details: 72 h
Outline: as §1

[17] = tested on: T-47D; experiment: as above; details: 72 h
Outline: as §1

[18] = tested on: BT-474 Tam1; experiment: as above; details: 4-OH-tamoxifen in medium 1 µM; 72 h
Outline: as §1

[19] = tested on: MCF-7 Tam1; experiment: as above; details: 4-OH-tamoxifen in medium 1 µM; 72 h
Outline: as §1

[20] = tested on: BT-474 Tam2; experiment: as above; details: 4-OH-tamoxifen in medium 1 µM; 72 h
Outline: as §1

[21] = tested on: ZR-75-1 Tam2; experiment: as above; details: 4-OH-tamoxifen in medium 1 µM; 72 h
Outline: as §1

[22] = tested on: ZR-75-1; experiment: as above; details: 72 h
Outline: as §1

Structure (SMILES)	relative IC50 ([1]; 4-OH-tamoxifen in medium 0 µM) [nM]	relative IC50 ([1]; 4-OH-tamoxifen in medium 1 µM) [nM]	relative IC50 [2] [nM]	relative IC50 [3] [nM]	relative IC50 [4] [nM]	relative IC50 ([5]; 4-OH-tamoxifen in medium 0 µM) [nM]	relative IC50 ([5]; 4-OH-tamoxifen in medium 1 µM) [nM]	relative IC50 ([6]; 4-OH-tamoxifen in medium 0 µM) [nM]	relative IC50 ([6]; 4-OH-tamoxifen in medium 1 µM) [nM]	relative IC50 [7] [nM]	relative IC50 [8] [nM]	relative IC50 [9] [nM]	relative IC50 [10] [nM]	relative IC50 ([11]; 4-OH-tamoxifen in medium 0 µM) [nM]	relative IC50 ([11]; 4-OH-tamoxifen in medium 1 µM) [nM]	drug sensitivity score ([12]; 4-OH-tamoxifen in medium 0 µM)	drug sensitivity score ([12]; 4-OH-tamoxifen in medium 1 µM)	drug sensitivity score [13]	drug sensitivity score [14]	drug sensitivity score [15]	drug sensitivity score ([16]; 4-OH-tamoxifen in medium 0 µM)	drug sensitivity score ([16]; 4-OH-tamoxifen in medium 1 µM)	drug sensitivity score ([17]; 4-OH-tamoxifen in medium 0 µM)	drug sensitivity score ([17]; 4-OH-tamoxifen in medium 1 µM)	drug sensitivity score [18]	drug sensitivity score [19]	drug sensitivity score [20]	drug sensitivity score [21]	drug sensitivity score ([22]; 4-OH-tamoxifen in medium 0 µM)	drug sensitivity score ([22]; 4-OH-tamoxifen in medium 1 µM)
COc1cccc2cc(-c3nc([C@H]4CC[C@H](C(=O)O)CC4)n4ncnc(N)c34)[nH]c12 [OSI-027]	1420	1160	131	134	219	333	697	246	543	203	713	338	198	263	132	4.23	4.31	8.2	15.8	9.81	5.02	6.48	11.9	5.99	7.62	2.71	5.03	12.5	11	11
C[C@@H]1C=C2C(=O)O[C@@H]3CC[C@H](C1)[C@]23O [Galiellalactone]	7000	> 50000	13800	8360	> 50000	> 50000	17300	20000	30100	19100	> 50000	> 50000	> 50000	> 50000	> 50000	6.75	0.391	2.32	3.53	0	0	2.65	2.52	1.56	2.19	0	0	0	0	0
N#CC[C@H](C1CCCC1)n1cc(-c2ncnc3[nH]ccc23)cn1	> 10000	> 10000	> 10000	> 10000	> 10000	> 10000	> 10000	> 10000	> 10000	> 10000	> 10000	> 10000	> 10000	> 10000	> 10000	0	0	0	0	0	0	0	0	0	0	0	0	0	0	0
CC(C)(C)c1cnc(CSc2cnc(NC(=O)C3CCNCC3)s2)o1 [SNS-032]	38.2	134	600	362	308		83.7	451		82.9	1200	420	297	243	315	20	11.8	4.33	8.4	9.78	0.78	15.8	7.36	1.24	23.8	2.67	14.4	11.1	12.3	9.55
C=CCNC1=C2C[C@@H](C)C[C@H](OC)[C@H](O)[C@@H](C)/C=C(\C)[C@H](OC(N)=O)[C@@H](OC)/C=C\C=C(/C)C(=O)NC(=CC1=O)C2=O [Tanespimycin  (17-AAG)]	61.5	65.6	2180	1640	284	42.2	42.4	1550	939	27.4	444	38.6	118	74.5	141	19.2	13.9	3.1	3.79	7.79	17.1	24	5.17	5.11	24	4.15	23.1	11.6	8.45	9.57
COc1cccc2c1C(=O)c1c(O)c3c(c(O)c1C2=O)C[C@@](O)(C(C)=O)C[C@@H]3O[C@H]1C[C@H](N)[C@H](O)[C@H](C)O1 [Daunorubicin]	208	189	282	133	164	385	375	134	350	398	341	393	150	138	124	6.15	7.3	4.19	6.95	5.81	2.33	4.51	7.41	3.69	3.18	1.34	1.15	6.6	6.15	5.38
COc1ccc(-c2ccc3c(N4CCOC[C@@H]4C)nc(N4CCOC[C@@H]4C)nc3n2)cc1CO [AZD8055]	48.4	130	227	39.9	38.9	60.7	267	61.1	423	378	147	399	18.5	31.3	12.3	20.2	11.5	10.2	17.1	16.2	11.8	13.6	16.7	8.08	12.7	6.06	8.38	19.8	18.4	17.4
COc1ccc(-c2cc3c(C)nc(N)nc3n([C@H]3CC[C@H](OCCO)CC3)c2=O)cn1	77.5	173	305	188	208	297	76.6	184	332	121	194	175	52.5	102	102	20.2	16.4	14.9	18.1	16.3	16.5	24.3	18.6	15.4	22.7	13.2	19.5	24	19	17
